{"source": "patent EP1100483B1", "about": "“GLUCOCORTICOID-SELECTIVE ANTI-INFLAMMATORY AGENTS” (Abbott Laboratories, priority 1998, dated 2000)", "data": [{"target": "T1, human glucocorticoid receptor-α [GRX] isoform (Homo sapiens, UniProt P04150)", "T1 construct": "purchased Ligand Pharmaceuticals (San Diego, CA); host or cells: insect SF21 cells (baculovirus)", "T1 sequence (P04150 1-777)": "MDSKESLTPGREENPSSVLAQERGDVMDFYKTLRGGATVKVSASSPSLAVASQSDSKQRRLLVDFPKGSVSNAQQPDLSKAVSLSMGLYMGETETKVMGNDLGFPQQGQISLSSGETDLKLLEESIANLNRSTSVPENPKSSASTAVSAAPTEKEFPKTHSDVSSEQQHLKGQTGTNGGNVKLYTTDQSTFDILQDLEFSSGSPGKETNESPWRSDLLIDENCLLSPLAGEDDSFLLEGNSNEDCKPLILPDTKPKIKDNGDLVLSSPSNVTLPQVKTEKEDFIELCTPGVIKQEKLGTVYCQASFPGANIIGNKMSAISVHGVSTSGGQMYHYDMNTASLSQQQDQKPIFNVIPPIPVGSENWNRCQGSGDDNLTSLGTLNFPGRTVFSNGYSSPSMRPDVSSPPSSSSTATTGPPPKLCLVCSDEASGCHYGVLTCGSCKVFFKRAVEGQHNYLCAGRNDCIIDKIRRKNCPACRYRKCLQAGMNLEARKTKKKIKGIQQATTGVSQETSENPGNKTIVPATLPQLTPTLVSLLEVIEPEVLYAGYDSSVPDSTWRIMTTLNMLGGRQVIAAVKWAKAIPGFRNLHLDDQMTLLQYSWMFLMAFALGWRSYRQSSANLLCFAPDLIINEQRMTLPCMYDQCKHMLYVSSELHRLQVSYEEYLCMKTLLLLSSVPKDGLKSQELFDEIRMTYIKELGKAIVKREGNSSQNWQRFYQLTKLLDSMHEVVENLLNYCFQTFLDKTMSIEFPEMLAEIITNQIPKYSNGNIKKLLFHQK", "test": "glucocorticoid receptor (GR) cytosol binding assay, [3H]-dexamethasone competition", "conditions": "not given", "from_the_text": "(§1) For glucocorticoid receptor (OR) cytosol binding assays, the procedure described in Anal. […] Briefly, cytosol preparations of human glucocorticoid receptor-α [GRX] isoform and human progesterone receptor-A [PRA] isoform were obtained from Ligand Pharmaceuticals (San Diego, CA). Both receptor cDNAs were cloned into baculovirus expression vectors and expressed in insect SF21 cells. […] Glass fiber type C multiscreen MAFC NOB plates were from Millipore ( Burlington, MA). Hydroxyapatide Bio-Gel HTP gel was obtained from Bio-Rad Laboratories (Hercules. CA). Tris(hydroxymethyl)aminomethane (Tris), ethylenediaminetetraacetic acid (EDTA), glycerol, dithiothreitol (DTT) and sodium moylybdate were obtained from Sigma Chemicals (St. Louis, MO). Microscint-20 scintillation fluid was obtained from Packard Instrument (Meriden, CT). […] GRX and PRA binding reactions were performed in Millipore Multiscreen plates. […] Specific binding was defined as the difference between binding of [^3H]Dex in the absence and in the presence of 1µM unlabeled Dex. After an overnight incubation, 50 µL of hydroxyapatite (25 % weight/volume) slurry were added to each well and plates were incubated for 10 min at 4 °C in a plate shaker. Plates were suctioned with a Millipore vacuum manifold and each well was rinsed with 300 µL of ice-cold binding buffer. A 250 µL aliquot of Packard Microscint-20 was added to each well and the wells were shaken at room temperature for 20 minutes. The amount of radioactivity was determined with a Packard TopCount plate reader.", "units": {"Ki": "nM"}, "values": [{"molecule": "CNc1ccc(C(c2ccc(N(C)C)cc2)c2cc([N+](=O)[O-])ccc2Cl)cc1", "note": "(stereo not shown) [Example 39, 4'-dimethylamino-4\"-methylamino-2-chloro-5-nitrotriphenylmethane]", "Ki": 127}, {"molecule": "CC(=O)OCCN(C)c1ccc(C(c2ccc(N(C)C)cc2)c2cc([N+](=O)[O-])ccc2Cl)cc1", "note": "(stereo not shown) [Example 51, 4'-dimethylamino-4\"-(N-methyl-N-(2-acetoxyethyl)amino)-2-chloro-5-nitrotriphenylmethane]", "Ki": 167}, {"molecule": "CN(C)c1ccc(C(c2ccc(N(C)C)cc2)c2cc(Cl)ccc2Cl)cc1", "note": "[Example 24, 4',4\" bis(dimethylamino)-2,5-dichlorotriphenylmethane]", "Ki": 306}, {"molecule": "CN(C)c1ccc(C(c2ccc(N(C)CCO)cc2)c2cc([N+](=O)[O-])ccc2Cl)cc1", "note": "(stereo not shown) [Example 42, 4'-dimethylamino-4\"-(N-methyl-N-(2-hydroxyethyl)amino)-2-chloro-5-nitrotriphenylmethane]", "Ki": 109}]}, {"target": "T1, human glucocorticoid receptor-α [GRX] isoform", "test": "glucocorticoid receptor (GR) cytosol binding assay, [3H]-dexamethasone competition", "conditions": "[3H]-Dex ~0.9 nM, GRX cytosol, 4 °C overnight; Cheng-Prusoff; read-out: Ki (nM) GR", "from_the_text": "as §1", "units": {"Ki": "nM"}, "values": [{"molecule": "CN(C)c1ccc(C(Sc2ccccc2)c2cc([N+](=O)[O-])ccc2Cl)cc1", "note": "(stereo not shown) [Example 54, phenyl-[(4'-dimethylaminophenyl)-(2-chloro-5-nitrophenyl)methyl]thioether]", "Ki": 227}, {"molecule": "CN(C)c1ccc(C(c2ccc(N(C)C)cc2)c2cc([N+](=O)[O-])ccc2Cl)cc1", "note": "[Example 1, 4',4\" bis(dimethylamino)-2-chloro-5-nitrotriphenylmethane]", "Ki": 272}, {"molecule": "O=[N+]([O-])c1ccc(Cl)c(C(c2ccc(NCc3ccccc3)cc2)c2ccc(NCc3ccccc3)cc2)c1", "note": "[Example 36, 4',4\" bis(N-benzylamino)-2-chloro-5-nitrotriphenylmethane]", "Ki": 38}, {"molecule": "CN(CCO)c1ccc(C(c2ccc(N(C)CCO)cc2)c2cc([N+](=O)[O-])ccc2Cl)cc1", "note": "[Example 32, 4',4\" bis(N-(2-hydroxyethyl) N-methylamino)-2-chloro-5-nitrotriphenylmethane]", "Ki": 136}, {"molecule": "CNc1ccc(C(c2ccc(NC)cc2)c2cc(Cl)ccc2Cl)cc1", "note": "[Example 27, 4',4\" bis(methylamino)-2,5-dichlorotriphenylmethane]", "Ki": 71}, {"molecule": "CNc1ccc(C(c2ccc(N(C)CCOC(C)=O)cc2)c2cc([N+](=O)[O-])ccc2Cl)cc1", "note": "(stereo not shown) [Example 49, 4'-methylamino-4\"-(N-(2-acetoxyethyl)-N-methylamino)-2-chloro-5-nitrotriphenylmethane]", "Ki": 135}, {"molecule": "CNc1ccc(C(c2ccc(NC)cc2)c2cc([N+](=O)[O-])ccc2Cl)cc1", "note": "[Example 23, 4',4\" bis(methylamino)-2-chloro-5-nitrotriphenylmethane]", "Ki": 60}, {"molecule": "CN(C)c1ccc(C(Oc2ccccc2)c2cc([N+](=O)[O-])ccc2Cl)cc1", "note": "(stereo not shown) [Example 52, phenyl-[(4'-dimethylaminophenyl)-(2-chloro-5-nitrophenyl)methyl] ether]", "Ki": 733}, {"molecule": "CC(=O)OCCN(C)c1ccc(C(c2ccc(N(C)CCOC(C)=O)cc2)c2cc([N+](=O)[O-])ccc2Cl)cc1", "note": "[Example 31, 4',4\" bis(N-(2-acetoxyethyl) N-methylamino)-2-chloro-5-nitrotriphenylmethane]", "Ki": 145}]}]}
